Measured values taken from ChEMBL document CHEMBL1145843 (J Med Chem, 2003).
The source made the active and inactive calls.

Legend:
[1] = Inhibitory concentration of compound for inhibiting hematin polymerization; assay type: functional
Plasmodium falciparum [2] = test: Growth inhibition against Plasmodium falciparum K1; Not active <= 3000nM; assay type: functional, organism-based
Plasmodium falciparum [3] = test: Growth inhibition against Plasmodium falciparum NF54; Not active <= 3000nM; assay type: functional, organism-based
[4] = Hematin binding affinity of compound was determined as a measure of inhibiting hematin polymerization

IC50 [1] [µM]	Ka [4] [M⁻¹]	SMILES	NI (Plasmodium falciparum [2])	NI (Plasmodium falciparum [3])
> 2500		CCN(CC)CCCC(C)Nc1cccc2cc(Cl)ccc12 (configuration not stated)	inactive	inactive
1500	84000	CCN(CC)CCCC(C)Cc1ccnc2cc(Cl)ccc12 (configuration not stated)	inactive	inactive
